Test results: patent US20210283099A1, “CDC7 KINASE INHIBITORS AND USES THEREOF” (SLOAN-KETTERING INSTITUTE FOR CANCER RESEARCH, priority 2010, published 2021)
Read-outs that look alike come from different tables or passages of the source.

Columns and labels:
PhALL3.1 = assay: Cytotoxicity assay (Alamar blue), patient leukemia sample; format: cell-based, human; conditions: for IC50: Homo sapiens, PhALL3.1
Experimental: (§1) FIGS. 16A-16B. Granaticin A and Granaticin B inhibit multiple tumor types: The indicated cell lines and primary patient samples were tested against the compounds listed in standard cytotoxicity assays (12 point dose response using Alamar blue reduction as an indicator of cell viability). Assays were done in triplicate and IC50 determinations were run in 12-point serial dilutions from […] to 5 nM. […] These include ras and EGFR gatekeeper mutation containing cell lines in addition to p53 mutant cell lines and other known chemotherapy resistant cell lines. Specifically, this included multi-drug resistance phenotype (MDR-overexpressing) cell lines from multiple hematologic and solid tumor cell lines. Table 1 highlights a series of primary patient leukemia samples-both acute and chronic and treatment naïve and refractory tested against granaticins A and B and Derivatives 1 and 2 (see Examples).
Table 1 highlights a series of primary patient leukemia samples-both acute and chronic and treatment naïve and refractory and the effect of granaticin A, granaticin B, derivative 1, and derivative 2 to inhibit cellular proliferation. […] The two starred samples represent serial samples taken from the same patients after they received 2-3 cycles of additional high dose salvage chemotherapy and indicate that although refractory to salvage chemotherapy, the Cdc7 pathway remains a potentially efficacious target as the sensitivity to these compounds remains unchanged. Importantly, each patient sample was resistant to the prior therapy received using this assay.

A549 = assay: Cytotoxicity assay (Alamar blue); format: cell-based; conditions: Human lung adenocarcinoma, G12S KRAS mutation
Experimental: as §1

BE(2)C = assay: Cytotoxicity assay (Alamar blue); format: cell-based; conditions: human neuroblastoma, p53 mutant
Experimental: as §1

DOGO = assay: Cytotoxicity assay (Alamar blue); format: cell-based; conditions: Homo sapiens, Patient sample of CLL with trisomy of chromosome 12 and unmutated Ig heavy chain locus
Experimental: as §1

FUUR1 = assay: Cytotoxicity assay (Alamar blue); format: cell-based; conditions: human renal cell carcinoma with the reciprocal ASPL-TFE3 fusion transcript
Experimental: as §1

H11-18 = assay: Cytotoxicity assay (Alamar blue); format: cell-based; conditions: Human lung adenocarcinoma, L858R EGFR mutation
Experimental: as §1

H1975 = assay: Cytotoxicity assay (Alamar blue); format: cell-based; conditions: NCI-H1975, Human lung adenocarcinoma, T790M/L858R EGFR mutation, R273H p53 mutation, PTEN null, wild-type KRAS
Experimental: as §1

HCC4011 = assay: Cytotoxicity assay (Alamar blue); format: cell-based; conditions: Human lung adenocarcinoma, L858R EGFR mutation, wild-type KRAS
Experimental: as §1

HELA N10 = assay: Cytotoxicity assay (Alamar blue); format: cell-based; conditions: human cervical adenocarcinoma (positive for human papillomavirus infection)
Experimental: as §1

HL60 MX1 = assay: Cytotoxicity assay (Alamar blue); format: cell-based; conditions: Homo sapiens, MDR variant of HL60 selected with mitoxantrone-clone 1
Experimental: as §1

HL60 MX2 = assay: Cytotoxicity assay (Alamar blue); format: cell-based; conditions: Homo sapiens, MDR variant of HL60 selected with mitoxantrone-clone 2
Experimental: as §1

HL60 RV = assay: Cytotoxicity assay (Alamar blue); format: cell-based; conditions: Homo sapiens, HL-60, MDR variant of HL60 selected with vincristine
Experimental: as §1

HTB15 = assay: Cytotoxicity assay (Alamar blue); format: cell-based; conditions: Human Glioblastoma (U-118MG)
Experimental: as §1

JABR = assay: Cytotoxicity assay (Alamar blue); format: cell-based; conditions: Homo sapiens, Patient sample of relpased/refractory AML with normal cytogenetics and Flt-3 ITD
Experimental: as §1

JAKL = assay: Cytotoxicity assay (Alamar blue); format: cell-based; conditions: Homo sapiens, Patient sample of CLL with trisomy of chromosome 12 and unmutated Ig heavy chain locus
Experimental: as §1

JAMC = assay: Cytotoxicity assay (Alamar blue); format: cell-based; conditions: Homo sapiens, Patient sample of AML with inversion of chromosome 16
Experimental: as §1

JEKO = assay: Cytotoxicity assay (Alamar blue); format: cell-based; conditions: Human Mantle Cell Lymphoma
Experimental: as §1

JOHO = assay: Cytotoxicity assay (Alamar blue); format: cell-based; conditions: Homo sapiens, Patient sample of primary refractory AML with inv3 and monosomy 7 (refractory to allogeneic BMT)
Experimental: as §1

JUCO = assay: Cytotoxicity assay (Alamar blue); format: cell-based; conditions: Homo sapiens, Patient sample of pre-B cell ALL with t(4;11) involving the MLL gene
Experimental: as §1

JURKAT E61 = assay: Cytotoxicity assay (Alamar blue); format: cell-based; conditions: Jurkat E6.1, Human Acute Lymphoblastic T-cell leukemia
Experimental: as §1

K562 = assay: Cytotoxicity assay (Alamar blue); format: cell-based; conditions: Human Chronic Myelogenous leukemia transformed to acute erythroleukemia
Experimental: as §1

MCF-10A = assay: Cytotoxicity assay (Alamar blue); format: cell-based; conditions: human normal mammary epithelium
Experimental: as §1

MEG01 = assay: Cytotoxicity assay (Alamar blue); format: cell-based; conditions: MEG-01, Human CML transformed to acute Megakaryoblastic leukemia
Experimental: as §1

MESO47 = assay: Cytotoxicity assay (Alamar blue); format: cell-based; conditions: human mesothelioma, WT-1 overexpression
Experimental: as §1

MOLT3 = assay: Cytotoxicity assay (Alamar blue); format: cell-based; conditions: MOLT-3, Human Acute Lympholastic T-cell Leukemia
Experimental: as §1

TC71 = assay: Cytotoxicity assay (Alamar blue); format: cell-based; conditions: TC-71, Human Ewing's sarcoma
Experimental: as §1

Y79 = assay: Cytotoxicity assay (Alamar blue); format: cell-based; conditions: Human retinoblastoma
Experimental: as §1

[1] = tested on: RPE (retinal pigment epithelial cells); assay: FACS and caspase-3 assay in normal diploid cells; format: cell-based
Experimental: (§2) FIGS. 23A-23C. Granaticin A and B are not cytotoxic to normal diploid cells: FIGS. 23A-23B: Granaticin B exposure is not cytotoxic to normal diploid cells. Either HeLa or RPE (retinal pigment epithelial cells, a normal human diploid cell line) cells were incubated in carrier control (DMSO) or granaticin B (1 microM) for 24 hours and samples were subjected to standard FACS analysis with the x-axis indicating DNA content (FIG. 23A). […] FIG. 23C: Granaticin A exposure is not cytotoxic to normal diploid cells. Either HeLa or RPE (retinal pigment epithelial cells, a normal diploid cell line) cells were incubated in carrier control (DMSO) or granaticin A for 24 hours and samples were subjected to standard FACS analysis with FL2 indicating DNA content.

HeLa = assay: FACS and caspase-3 assay in HeLa cells; format: cell-based, human; conditions: for cell cycle profile: 24 hours (granaticin B 1 microM)
Experimental: as §2

SMILES | IC50 (PhALL3.1) | IC50 (A549) | IC50 (BE(2)C) | IC50 (DOGO) | IC50 (FUUR1) | IC50 (H11-18) | IC50 (H1975) | IC50 (HCC4011) | IC50 (HELA N10) | IC50 (HL60 MX1) | IC50 (HL60 MX2) | IC50 (HL60 RV) | IC50 (HTB15) | IC50 (JABR) | IC50 (JAKL) | IC50 (JAMC) | IC50 (JEKO) | IC50 (JOHO) | IC50 (JUCO) | IC50 (JURKAT E61) | also measured
CC1OC2CC(O)C1(O)c1c(O)c3c(c(O)c12)C(=O)C1=C(C3=O)[C@H](C)O[C@H]2CC(=O)O[C@@H]12 (stereo partly shown) [Granaticin A, granaticin A] | 140 nM | 280 nM | 70 nM | 150 nM | 480 nM | 420 nM | 120 nM | 140 nM | 1270 nM | 170 nM | 110 nM | 90 nM | 650 nM | 210 nM | 50 nM | 60 nM | 40 nM | 880 nM | 80 nM | 50 nM | activity in the cell based assays (PhALL3.1; PhALL3.1 cell line): very active; IC50 (K562): 120 nM; IC50 (MCF-10A): 260 nM; IC50 (MEG01): 170 nM; IC50 (MESO47): 610 nM; IC50 (MOLT3): 30 nM; IC50 (TC71): 150 nM; IC50 (Y79): 60 nM; cell cycle profile [1]: unaffected; cell cycle profile (HeLa): apoptotic cell death
CC1OC2CC(O[C@H]3CC[C@H](O)[C@H](C)O3)C1(O)c1c(O)c3c(c(O)c12)C(=O)C1=C(C3=O)[C@H](C)O[C@H]2CC(=O)O[C@@H]12 (stereo partly shown) [Granaticin B, granaticin B] | 30 nM | 90 nM | 40 nM | 70 nM | 340 nM | 60 nM | 30 nM | 50 nM | 970 nM | 80 nM | 70 nM | 70 nM | 460 nM | 50 nM | 10 nM | 40 nM | 20 nM | 170 nM | 10 nM | 20 nM | IC50 (K562): 80 nM; IC50 (MCF-10A): 240 nM; IC50 (MEG01): 80 nM; IC50 (MESO47): 380 nM; IC50 (MOLT3): 10 nM; IC50 (TC71): 90 nM; IC50 (Y79): 50 nM; caspase-3 activation ([1]; RPE cells, 1 microM): does not result in caspase-3 activation; cell cycle profile ([1]; RPE cells, 24 hours (granaticin B 1 microM)): essentially unaffected; caspase-3 activation (HeLa; 1 microM): only activated in HeLa cells; cell cycle profile (HeLa): apoptotic cell death
